# Measurements: patent publication US7759373B2, “Large conductance calcium-activated K channel opener” (Mitsubishi Tanabe Pharma Corporation, priority 2001, dated 2010)
# Assays:
# [1] = system: rhythmic bladder contractions induced by substance P; test: Inhibitory effect on the rhythmic bladder contractions induced by substance P in anesthetized rats; type: in vivo, rat; conditions: time during which frequency of rhythmic contraction was completely inhibited, 0.25 mg/kg of the compound, substance P infusion
# Method in brief: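 Value is duration (min) of complete inhibition of bladder contractions, ranked A/B/C at 20 and 10 min cut-offs. Intravenous dosing (0.5% Tween 80 saline) in female SD rats under urethane, bladder saline-filled and contractions maintained by substance P infusion, 0.33 μg/kg/min.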
# [2] = system: isolated rabbit urinary bladder; test: Relaxation effect on potassium-induced contraction of isolated rabbit urinary bladder; type: cell-based; conditions: Oryctolagus cuniculus; 50% relaxation concentration; high-K+ (30 mM) pre-contracted rabbit bladder strips; relaxation as percentage of the maximum produced by 0.1 mM papaverine; read-out: EC50 value range
# Method in brief: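 Mucosa-free longitudinal bladder strips from male NZW rabbits, held at 37 °C in Krebs solution gassed with 95% O2/5% CO2, were precontracted with 30 mM K+. Compounds were added cumulatively (10^−8–10^−4 M), with isometric relaxation expressed relative to 0.1 mM papaverine maximum. EC50 was derived and reported as rank ranges.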
melting point,EC50 [2] [nM],SMILES,100% inhibition time range [1]
120 to 122 °C,–,CCOC(=O)Cc1nc(-c2ccc(F)cc2)oc1I [Preparation Example 295],B (A≧20>B≧10>C (minute))
183 to 184 °C,1000 to 3000,CCONC(=O)Cc1nc(-c2ccc(F)cc2)oc1-c1ccsc1 [Preparation Example 377],C (A≧20>B≧10>C (minute))
213 to 214 °C,–,COC(=O)c1nc(-c2ccc(F)cc2)oc1-c1ccsc1 [Preparation Example 622],B (A≧20>B≧10>C (minute))
208 to 210 °C,1000 to 3000,CS(=O)(=O)Cc1nc(-c2ccc(F)cc2)oc1-c1ccsc1 [Preparation Example 623],C (A≧20>B≧10>C (minute))
173 to 174.5 °C,–,C[S+]([O-])Cc1nc(-c2ccc(F)cc2)oc1-c1ccsc1 (stereo not shown) [Preparation Example 624],C (A≧20>B≧10>C (minute))
127 to 129 °C,1000 to 3000,CCOC(=O)c1sccc1-c1nc(CC)c(-c2cccnc2)[nH]1 [Preparation example 10],–
174 to 176 °C,1000 to 3000,CCc1nc(-c2ccc(Cl)cc2)[nH]c1-c1ccccc1 [Preparation example 59],B (A≧20>B≧10>C (minute))
147 to 149 °C,1000 to 3000,CCCc1nc(-c2ccc(Cl)cc2)[nH]c1-c1ccccc1 [Preparation example 60],–
169 to 170 °C,1000 to 3000,CCc1nc(-c2ccc(F)cc2)[nH]c1-c1ccccc1 [Preparation example 61],A (A≧20>B≧10>C (minute))
176 to 178 °C,–,N#CCCc1nc(-c2ccc(F)cc2)[nH]c1-c1ccccc1 [Preparation example 62],C (A≧20>B≧10>C (minute))
201 to 204 °C,–,"CCc1nc(-c2ccc(Cl)s2)oc1-c1cccnc1.Cl [Preparation example 63, 2-(5-chlorothiophen-2-yl)-4-ethyl-5-(3-pyridyl)oxazole hydrochloride]",C (A≧20>B≧10>C (minute))
240 to 242 °C,1000 to 3000,CCCc1nc(-c2ccc(F)cc2)[nH]c1-c1ccc(C#N)cc1 [Preparation example 95],–
245 to 248 °C (dec.),≤ 500,"COCc1[nH]c(-c2ccc(Cl)s2)nc1-c1cccnc1.Cl.Cl [Preparation example 120, 2-(5-chlorothiophen-2-yl)-5-methoxymethyl-4-(3-pyridyl) imidazole dihydrochloride]",C (A≧20>B≧10>C (minute))
172 to 174 °C,–,CSCc1nc(-c2ccc(F)cc2)[nH]c1-c1cccnc1 [Preparation example 133],C (A≧20>B≧10>C (minute))
209 to 211 °C,–,CSCc1nc(-c2ccc(C#N)cc2)[nH]c1-c1cccnc1 [Preparation example 134],–
